GI50 data for 24 compounds are collected here from patent US9789086B1, “N-(5-arylamido-2-methylphenyl)-5-methylisooxazole-4-carboxamide deravative, pharmaceutical acceptable salt thereof, method for preparation therof and FMS kinase inhibitor comprising the same as anactive ingredient” (Industry-University Cooperation Foundation Hanyang …, priority 2014, dated 2017).

In assay [1] the test system is U937 cell line. Briefly: U937 cell line proliferation inhibitory activity (MTT assay). The following applies: Homo sapiens, U-937, U937 cells. Type of assay: cell-based. How it is done:
(§1) In order to measure cell viability, MTT [3-(4,5-dimethylthiazole-2-yl)-2,5-diphenyltetrazolium bromide] activity assay method (Thiazolyl Blue Tetrazolium Bromide, Sigma Aldrich) was used. Cell lines were cultured in 96-well plates for 24 hours and treated with the compounds of Examples previously prepared. For the compound treatment, 10 mM stocks were prepared, serially diluted in DMSO and added by 0.5 μL at 8 points (final concentration of 0.5%). The cell lines in plates treated with the compounds was cultured for 48 hours, then 15 μL of dye was added to each well and cultured for 4 hours. Then, 100 μL of DMSO solvent was added to each well, and the formed solid was dissolved to measure the absorbance. The absorbance was read at a wavelength of 570 nm using EnVision 2103, and the GI 50 value was calculated using GraphPad Prism 4.0 software, and the results are shown in Table 1 below.
U937 cell lines were purchased from ATCC and cultured in a RPMI culture medium (containing 10% FBS, 1% penicillin/streptomycin and 25 mM HEPES) in the presence of 5% CO2 at 37° C. The cell line proliferation inhibitory activity for Examples previously prepared was measured using the same MTT activity assay method as the A375P cell line proliferation inhibitory activity assay in Experimental Example 1.
Background: Tetrazolium assays rely on reduction of a dye to a coloured formazan, in cell work by metabolically active cells.

Assay [2] concerns A375P cell line. Briefly: A375P cell line proliferation inhibitory activity (MTT assay). The format is cell-based. The following applies: A375P cells, 48 hours treatment. As to the method: A375P cell lines were purchased from ATCC and cultured in a DMEM culture medium (containing 10% FBS and 1% penicillin/streptomycin) in the presence of 5% CO2 at 37° C. The cultured A375P cell lines were taken from culture substrate with 0.05% trypsin-0.02% EDTA and plated at a density of 5×10^3 cells per well in 96-well plates.
as §1

One may read the GI50 as the concentration that inhibits growth by half. A high value points to less potent growth inhibition. With `Cc1ccc(NC(=O)c2ccc(N3CCOCC3)c(C(F)(F)F)c2)cc1NC(=O)c1cnoc1C` [Example 4, 5-methyl-N-(2-methyl-5-(4-morpholino-3-(trifluoromethyl)benzamido)phenyl)isoxazole-4-carboxamide], the concentration for 50% growth inhibition (GI50) in assay [1] was less than 1 µM; in assay [2] it was 10 to 30 µM.

Take `Cc1cc(NC(=O)Nc2ccc(Cl)c(C(F)(F)F)c2)ccc1NC(=O)c1cnoc1C` [Example 35, N-(4-(3-(4-chloro-3-(trifluoromethyl)phenyl)ureido)-2-methylphenyl)-5-methylisoxazole-4-carboxamide]: the GI50 in assay [1] and in assay [2] was 10 to 30 µM each time.

As for `Cc1ccc(NC(=O)c2cc(-n3ccnc3C)cc(C(F)(F)F)c2)cc1NC(=O)c1cnoc1C` [Example 9, 5-methyl-N-(2-methyl-5-(3-(2-methyl-1H-imidazol-1-yl)-5-(trifluoromethyl)benzamido)phenyl)isoxazole-4-carboxamide], the GI50 in assay [1] is less than 1 µM; in assay [2] it was 10 to 30 µM.

With `Cc1ccc(NC(=O)c2cc(N3CCN(C)CC3)cc(C(F)(F)F)c2)cc1NC(=O)c1cnoc1C` [Example 3, 5-methyl-N-(2-methyl-5-(3-(4-methylpiperazin-1-yl)-5-(trifluoromethyl)benzamido)phenyl)isoxazole-4-carboxamide], the GI50 in assay [1] was less than 1 µM; in assay [2], 10 to 30 µM.

As for `Cc1cc(C)cc(C(=O)Nc2ccc(C)c(NC(=O)c3cnoc3C)c2)c1` [Example 24, N-(5-(3,5-dimethylbenzamido)-2-methylphenyl)-5-methylisoxazole-4-carboxamide], the concentration for 50% growth inhibition (GI50) in assay [1] lay in the range of 1 to 10 µM; in assay [2], 10 to 30 µM.

Regarding `Cc1ccc(NC(=O)Nc2cccc(C(F)(F)F)c2)cc1NC(=O)c1cnoc1C` [Example 29, 5-methyl-N-(2-methyl-5-(3-(3-(trifluoromethyl)phenyl)ureido)phenyl)isoxazole-4-carboxamide], the 50% growth inhibitory concentration (GI50) in assay [1] and in assay [2] was 10 to 30 µM each time.

Consider `Cc1ccc(NC(=O)Nc2ccc(Cl)c(Cl)c2)cc1NC(=O)c1cnoc1C` [Example 34, N-(5-(3-(3,4-dichlorophenyl)ureido)-2-methylphenyl)-5-methylisoxazole-4-carboxamide], for which the GI50 is 1 to 10 µM in assay [1] and 10 to 30 µM in assay [2].

Turning to `Cc1ccc(NC(=O)c2ccc(Cl)cc2)cc1NC(=O)c1cnoc1C` [Example 7, N-(5-(4-chlorobenzamido)-2-methylphenyl)-5-methylisoxazole-4-carboxamide], the GI50 in assay [1] and in assay [2] was 10 to 30 µM throughout.

In the case of `Cc1cc(NC(=O)Nc2cc(Cl)cc(Cl)c2)ccc1NC(=O)c1cnoc1C` [Example 41, N-(4-(3-(3,5-dichlorophenyl)ureido)-2-methylphenyl)-5-methylisoxazole-4-carboxamide], the GI50 in assay [1] and in assay [2] was 10 to 30 µM each time.

With `Cc1ccc(NC(=O)Nc2ccccc2F)cc1NC(=O)c1cnoc1C` [Example 31, N-(5-(3-(2-fluorophenyl)ureido)-2-methylphenyl)-5-methylisoxazole-4-carboxamide], the concentration for 50% growth inhibition (GI50) in assay [1] and in assay [2] was 10 to 30 µM throughout.

Regarding `Cc1cn(-c2cc(C(=O)Nc3ccc(C)c(NC(=O)c4cnoc4C)c3)cc(C(F)(F)F)c2)cn1` [Example 11, 5-methyl-N-(2-methyl-5-(3-(4-methyl-1H-imidazol-1-yl)-5-(trifluoromethyl)benzamido)phenyl)isoxazole-4-carboxamide], the 50% growth inhibitory concentration (GI50) in assay [1] is less than 1 µM; in assay [2] it was 10 to 30 µM.

As to `Cc1ccc(NC(=O)c2ccc3[nH]nnc3c2)cc1NC(=O)c1cnoc1C` [Example 18, N-(5-(1H-benzo[d][1,2,3]triazole-5-carboxamido)-2-methylphenyl)-5-methylisoxazole-4-carboxamide], the GI50 in assay [1] and in assay [2] was 10 to 30 µM in each case.

Consider `Cc1ccc(NC(=O)c2cccc(Cl)c2)cc1NC(=O)c1cnoc1C` [Example 6, N-(5-(3-chlorobenzamido)-2-methylphenyl)-5-methylisoxazole-4-carboxamide], for which the GI50 in assay [1] and in assay [2] was 10 to 30 µM each time.

With `Cc1cc(NC(=O)Nc2cccc(C(F)(F)F)c2)ccc1NC(=O)c1cnoc1C` [Example 36, 5-methyl-N-(2-methyl-4-(3-(3-(trifluoromethyl)phenyl)ureido)phenyl)isoxazole-4-carboxamide], the GI50 in assay [1] and in assay [2] was 10 to 30 µM each time.

Turning to `Cc1ccc(NC(=O)c2cnc3ccccc3c2)cc1NC(=O)c1cnoc1C` [Example 27, 5-methyl-N-(2-methyl-5-(quinoline-3-carboxamido)phenyl)isoxazole-4-carboxamide], the GI50 in assay [1] and in assay [2] was 10 to 30 µM throughout.

Consider `Cc1ccc(NC(=O)Cc2ccc(-c3ccccc3)cc2)cc1NC(=O)c1cnoc1C` [Example 22, N-(5-(2-(biphenyl-4-yl)acetamido)-2-methylphenyl)-5-methylisoxazole-4-carboxamide], for which the concentration for 50% growth inhibition (GI50) in assay [1] and in assay [2] was 10 to 30 µM in each case.

Consider `Cc1ccc(NC(=O)Nc2cc(Cl)cc(Cl)c2)cc1NC(=O)c1cnoc1C` [Example 33, N-(5-(3-(3,5-dichlorophenyl)ureido)-2-methylphenyl)-5-methylisoxazole-4-carboxamide], for which the GI50 in assay [1] and in assay [2] was 10 to 30 µM throughout.

With `Cc1cc(NC(=O)c2cc(N3CCN(C)CC3)cc(C(F)(F)F)c2)ccc1NC(=O)c1cnoc1C` [Example 2, 5-methyl-N-(2-methyl-4-(3-(4-methylpiperazin-1-yl)-5-(trifluoromethyl)benzamido)phenyl)isoxazole-4-carboxamide], the GI50 in assay [1] and in assay [2] was 10 to 30 µM in each case.

For the compound `Cc1ccc(NC(=O)Nc2ccc(Cl)cc2)cc1NC(=O)c1cnoc1C` [Example 28, N-(5-(3-(4-chlorophenyl)ureido)-2-methylphenyl)-5-methylisoxazole-4-carboxamide], the GI50 in assay [1] and in assay [2] was 10 to 30 µM in each case.

Regarding `Cc1ccc(NC(=O)c2ccc3ccccc3n2)cc1NC(=O)c1cnoc1C` [Example 12, 5-methyl-N-(2-methyl-5-(quinoline-2-carboxamido)phenyl)isoxazole-4-carboxamide], the GI50 in assay [1] and in assay [2] was 10 to 30 µM throughout.

Turning to `Cc1cc(NC(=O)c2ccc(N3CCOCC3)c(C(F)(F)F)c2)ccc1NC(=O)c1cnoc1C` [Example 1, 5-methyl-N-(2-methyl-4-(4-morpholino-3-(trifluoromethyl)benzamido)phenyl)isoxazole-4-carboxamide], the GI50 in assay [1] and in assay [2] was 10 to 30 µM each time.

Regarding `Cc1ccc(NC(=O)c2ccccc2-c2ccccc2)cc1NC(=O)c1cnoc1C` [Example 25, N-(5-biphenyl-2-ylcarboxamido-2-methylphenyl)-5-methylisoxazole-4-carboxamide], the concentration for 50% growth inhibition (GI50) in assay [1] and in assay [2] was 10 to 30 µM throughout.

For the compound `Cc1cc(NC(=O)Nc2cccc(Cl)c2)ccc1NC(=O)c1cnoc1C` [Example 37, N-(4-(3-(3-chlorophenyl)ureido)-2-methylphenyl)-5-methylisoxazole-4-carboxamide], the GI50 in assay [1] and in assay [2] was 10 to 30 µM throughout.

Turning to `Cc1ccc(NC(=O)c2cnccn2)cc1NC(=O)c1cnoc1C` [Example 17, 5-methyl-N-(2-methyl-5-(pyrazine-2-carboxamido)phenyl)isoxazole-4-carboxamide], the concentration for 50% growth inhibition (GI50) in assay [1] and in assay [2] was 10 to 30 µM in each case.
